Source: patent US20260262643A1, “HERBICIDAL BENZOXAZINES” (FMC CORPORATION, priority 2022, published 2026)

Assays:
soybean [1] = experiment: Test A postemergence; assay type: in vivo, Glycine max; conditions: postemergence, 10 days; for Plant response rating, Soybean: 500 g ai/ha, visual injury, 0 to 100 scale (0 no effect, 100 complete control)
How it was run: (§1)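 Greenhouse pot test, 10 days. Compound (non-phytotoxic solvent, surfactant) sprayed on soil at seeding or on seedlings at one- to two-leaf stage. Visual injury rated 0–100 against untreated plants.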

horseweed = experiment: Test A postemergence; assay type: in vivo, Erigeron canadensis; conditions: postemergence, 10 days; for Plant response rating, Horseweed: visual injury, 0 to 100 scale (0 no effect, 100 complete control)
How it was run: as §1

foxtail, giant [2] = experiment: Test A preemergence; assay type: in vivo, Setaria faberi
How it was run: as §1

barnyardgrass = experiment: Test B flooded paddy test; assay type: in vivo, Echinochloa crus-galli; conditions: 250 g ai/ha, Flood, 13 days, 0 to 100 scale (0 no effect, 100 complete control)
How it was run: (§2)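 Compound is introduced into paddy water covering soil by 3 cm, treating plants that have reached two leaves. Pots are kept flooded at that depth under greenhouse conditions. Assessment at 13 days gives a 0–100 visual control score.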

ragweed [3] = experiment: Test A postemergence; assay type: in vivo, Ambrosia artemisiifolia; conditions: postemergence, 10 days; for Plant response rating, Ragweed: 500 g ai/ha, visual injury, 0 to 100 scale (0 no effect, 100 complete control)
How it was run: as §1

ryegrass, Italian [4] = experiment: Test A preemergence; assay type: in vivo, Lolium multiflorum
How it was run: as §1

goosegrass [5] = experiment: Test A postemergence; assay type: in vivo, Eleusine indica; conditions: postemergence, 10 days; for Plant response rating, Goosegrass: visual injury, 0 to 100 scale (0 no effect, 100 complete control)
How it was run: as §1

blackgrass [6] = experiment: Test A preemergence; assay type: in vivo, Alopecurus myosuroides
How it was run: as §1

kochia [7] = experiment: Test A preemergence; assay type: in vivo, Bassia scoparia
How it was run: as §1

blackgrass [8] = experiment: Test A postemergence; assay type: in vivo, Alopecurus myosuroides
How it was run: as §1

oat, wild [9] = experiment: Test A preemergence; assay type: in vivo, Avena fatua
How it was run: as §1

pigweed, palmer [10] = experiment: Test A postemergence; assay type: in vivo, Amaranthus palmeri; conditions: postemergence, 10 days; for Plant response rating, Pigweed, Palmer: 500 g ai/ha, visual injury, 0 to 100 scale (0 no effect, 100 complete control)
How it was run: as §1

oat, wild [11] = experiment: Test A postemergence; assay type: in vivo, Avena fatua; conditions: postemergence, 10 days; for Plant response rating, Oat, Wild: 500 g ai/ha, visual injury, 0 to 100 scale (0 no effect, 100 complete control)
How it was run: as §1

kochia [12] = experiment: Test A postemergence; assay type: in vivo, Bassia scoparia; conditions: postemergence, 10 days; for Plant response rating, Kochia: visual injury, 0 to 100 scale (0 no effect, 100 complete control)
How it was run: as §1

rice = experiment: Test B flooded paddy test; assay type: in vivo, Oryza sativa; conditions: 250 g ai/ha, Flood, 13 days, 0 to 100 scale (0 no effect, 100 complete control)
How it was run: as §2

ryegrass, Italian [13] = experiment: Test A postemergence; assay type: in vivo, Lolium multiflorum; conditions: postemergence, 10 days; for Plant response rating, Ryegrass, Italian: 500 g ai/ha, visual injury, 0 to 100 scale (0 no effect, 100 complete control)
How it was run: as §1

wheat [14] = experiment: Test A preemergence; assay type: in vivo, Triticum aestivum
How it was run: as §1

goosegrass [15] = experiment: Test A preemergence; assay type: in vivo, Eleusine indica
How it was run: as §1

corn [16] = experiment: Test A preemergence; assay type: in vivo, Zea mays
How it was run: as §1

ducksalad = experiment: Test B flooded paddy test; assay type: in vivo, Heteranthera limosa; conditions: 250 g ai/ha, Flood, 13 days, 0 to 100 scale (0 no effect, 100 complete control)
How it was run: as §2

ragweed [17] = experiment: Test A preemergence; assay type: in vivo, Ambrosia artemisiifolia
How it was run: as §1

pigweed, palmer [18] = experiment: Test A preemergence; assay type: in vivo, Amaranthus palmeri
How it was run: as §1

sedge, umbrella = experiment: Test B flooded paddy test; assay type: in vivo, Cyperus difformis; conditions: 250 g ai/ha, Flood, 13 days, 0 to 100 scale (0 no effect, 100 complete control)
How it was run: as §2

soybean [19] = experiment: Test A preemergence; assay type: in vivo, Glycine max
How it was run: as §1

foxtail, giant [20] = experiment: Test A postemergence; assay type: in vivo, Setaria faberi; conditions: postemergence, 10 days; for Plant response rating, Foxtail, Giant: visual injury, 0 to 100 scale (0 no effect, 100 complete control)
How it was run: as §1

corn [21] = experiment: Test A postemergence; assay type: in vivo, Zea mays; conditions: postemergence, 10 days; for Plant response rating, Corn: visual injury, 0 to 100 scale (0 no effect, 100 complete control)
How it was run: as §1

wheat [22] = experiment: Test A postemergence; assay type: in vivo, Triticum aestivum; conditions: postemergence, 10 days; for Plant response rating, Wheat: 500 g ai/ha, visual injury, 0 to 100 scale (0 no effect, 100 complete control)
How it was run: as §1

[23] = 125 g ai/ha, visual injury after 10 days, 0 to 100 scale, 0 is no effect, 100 is complete control
[24] = 500 g ai/ha, 0 to 100 scale (0 no effect, 100 complete control), 10 days
[25] = 125 g ai/ha, 0 to 100 scale, 0 no effect, 100 complete control

Structure (SMILES): CCc1ccc(-n2cncn2)cc1C(=O)N1C[C@H](C)Oc2c(Cl)cccc21 [Compound 79]
- Plant response rating, Soybean (soybean [1]): 100
- Plant response rating, Horseweed (horseweed; 125 g ai/ha): 0
- Plant response rating, Horseweed (horseweed; 500 g ai/ha): 20
- Plant response rating, Foxtail, Giant (foxtail, giant [2]; [23]): 100
- Plant response rating, Foxtail, Giant (foxtail, giant [2]; [24]): 100
- Plant response rating, Barnyardgrass (barnyardgrass): 0
- Plant response rating, Ragweed (ragweed [3]): 50
- Plant response rating, Ryegrass, Italian (ryegrass, Italian [4]; [23]): 60
- Plant response rating, Ryegrass, Italian (ryegrass, Italian [4]; [24]): 100
- Plant response rating, Goosegrass (goosegrass [5]; 125 g ai/ha): 20
- Plant response rating, Goosegrass (goosegrass [5]; 500 g ai/ha): 80
- Plant response rating, Blackgrass (blackgrass [6]; [23]): 50
- Plant response rating, Blackgrass (blackgrass [6]; [24]): 70
- Plant response rating, Kochia (kochia [7]; [23]): 20
- Plant response rating, Kochia (kochia [7]; [24]): 40
- Plant response rating, Blackgrass (blackgrass [8]; 125 g ai/ha, postemergence, 10 days, visual injury, 0 to 100 scale (0 no effect, 100 complete control)): 80
- Plant response rating, Blackgrass (blackgrass [8]; 500 g ai/ha, Postemergence, 0 to 100 scale): 80
- Plant response rating, Oat, Wild (oat, wild [9]; [23]): 90
- Plant response rating, Oat, Wild (oat, wild [9]; [24]): 80
- Plant response rating, Pigweed, Palmer (pigweed, palmer [10]): 90
- Plant response rating, Oat, Wild (oat, wild [11]): 80
- Plant response rating, Kochia (kochia [12]; 125 g ai/ha): 30
- Plant response rating, Kochia (kochia [12]; 500 g ai/ha): 60
- Plant response rating, Rice (rice): 0
- Plant response rating, Ryegrass, Italian (ryegrass, Italian [13]): 100
- Plant response rating, Wheat (wheat [14]; [23]): 10
- Plant response rating, Wheat (wheat [14]; [24]): 50
- Plant response rating, Goosegrass (goosegrass [15]; [23]): 100
- Plant response rating, Goosegrass (goosegrass [15]; [24]): 100
- Plant response rating, Corn (corn [16]; [23]): 20
- Plant response rating, Corn (corn [16]; [24]): 40
- Plant response rating, Ducksalad (ducksalad): 45
- Plant response rating, Ragweed (ragweed [17]; [23]): 0
- Plant response rating, Ragweed (ragweed [17]; [24]): 30
- Plant response rating, Pigweed, Palmer (pigweed, palmer [18]; [23]): 40
- Plant response rating, Pigweed, Palmer (pigweed, palmer [18]; [24]): 100
- Plant response rating, Sedge, Umbrella (sedge, umbrella): 98
- Plant response rating, Soybean (soybean [19]; [23]): 60
- Plant response rating, Soybean (soybean [19]; [24]): 90
- Plant response rating, Foxtail, Giant (foxtail, giant [20]; 125 g ai/ha): 90
- Plant response rating, Foxtail, Giant (foxtail, giant [20]; 500 g ai/ha): 90
- Plant response rating, Corn (corn [21]; 125 g ai/ha): 40
- Plant response rating, Corn (corn [21]; 500 g ai/ha): 80
- Plant response rating, Wheat (wheat [22]): 50

Structure (SMILES): COc1ccc(-n2cnc(C)n2)cc1C(=O)N1C[C@H](C)Oc2c(Cl)cccc21 [Compound 89]
- Soybean plant response rating (soybean [1]; [25]): 100
- Plant response rating, Soybean (soybean [1]): 100
- Horseweed plant response rating (horseweed; [25]): 20
- Plant response rating, Horseweed (horseweed; 500 g ai/ha): 40
- Plant response rating, Foxtail, Giant (foxtail, giant [2]; [23]): 100
- Plant response rating, Foxtail, Giant (foxtail, giant [2]; [24]): 100
- Plant response rating, Barnyardgrass (barnyardgrass): 60
- Ragweed plant response rating (ragweed [3]; [25]): 60
- Plant response rating, Ragweed (ragweed [3]): 80
- Plant response rating, Ryegrass, Italian (ryegrass, Italian [4]; [23]): 90
- Plant response rating, Ryegrass, Italian (ryegrass, Italian [4]; [24]): 100
- Goosegrass plant response rating (goosegrass [5]; [25]): 90
- Plant response rating, Goosegrass (goosegrass [5]; 500 g ai/ha): 100
- Plant response rating, Blackgrass (blackgrass [6]; [23]): 70
- Plant response rating, Blackgrass (blackgrass [6]; [24]): 90
- Plant response rating, Kochia (kochia [7]; [23]): 70
- Plant response rating, Kochia (kochia [7]; [24]): 100
- Blackgrass plant response rating (blackgrass [8]; 125 g ai/ha, postemergence, 10 days, 0 to 100 scale, 0 no effect, 100 complete control): 70
- Plant response rating, Blackgrass (blackgrass [8]; 500 g ai/ha, postemergence, 10 days, visual injury, 0 to 100 scale (0 no effect, 100 complete control)): 80
- Plant response rating, Oat, Wild (oat, wild [9]; [23]): 70
- Plant response rating, Oat, Wild (oat, wild [9]; [24]): 90
- Pigweed, Palmer plant response rating (pigweed, palmer [10]; [25]): 70
- Plant response rating, Pigweed, Palmer (pigweed, palmer [10]): 100
- Oat, Wild plant response rating (oat, wild [11]; [25]): 80
- Plant response rating, Oat, Wild (oat, wild [11]): 90
- Kochia plant response rating (kochia [12]; [25]): 70
- Plant response rating, Kochia (kochia [12]; 500 g ai/ha): 90
- Plant response rating, Rice (rice): 15
- Ryegrass, Italian plant response rating (ryegrass, Italian [13]; [25]): 100
- Plant response rating, Ryegrass, Italian (ryegrass, Italian [13]): 100
- Plant response rating, Wheat (wheat [14]; [23]): 20
- Plant response rating, Wheat (wheat [14]; [24]): 60
- Plant response rating, Goosegrass (goosegrass [15]; [23]): 100
- Plant response rating, Goosegrass (goosegrass [15]; [24]): 100
- Plant response rating, Corn (corn [16]; [23]): 20
- Plant response rating, Corn (corn [16]; [24]): 60
- Plant response rating, Ducksalad (ducksalad): 100
- Plant response rating, Ragweed (ragweed [17]; [23]): 40
- Plant response rating, Ragweed (ragweed [17]; [24]): 90
- Plant response rating, Pigweed, Palmer (pigweed, palmer [18]; [23]): 90
- Plant response rating, Pigweed, Palmer (pigweed, palmer [18]; [24]): 100
- Plant response rating, Sedge, Umbrella (sedge, umbrella): 100
- Plant response rating, Soybean (soybean [19]; [23]): 100
- Plant response rating, Soybean (soybean [19]; [24]): 100
- Foxtail, Giant plant response rating (foxtail, giant [20]; [25]): 90
- Plant response rating, Foxtail, Giant (foxtail, giant [20]; 500 g ai/ha): 100
- Corn plant response rating (corn [21]; [25]): 70
- Plant response rating, Corn (corn [21]; 500 g ai/ha): 70
- Wheat plant response rating (wheat [22]; [25]): 50
- Plant response rating, Wheat (wheat [22]): 50
